Patent US20030065039A1, “Biologically active 1,3-bis-aromatic-prop-2-en-1-ones, 1,3-bis-aromatic-propan-1-ones, and 1,3-bis-aromatic-prop-2-yn-1-ones” (Statens Serum Institute, priority 1997, published 2003)
Values after ≈ are worked out from the molar mass of the structure shown. Read-outs that look alike come from different tables or passages of the source.

Tests used:
Format in all cases: cell-based
[1] = system: IL-1ra; experiment: Intracellular cytokine staining in stimulated human mononuclear cells; details: 25 μg/ml compound
Experimental: (§1) Therefore, experiments were performed to examine the effect of Licochalcone A and SBC-35ma on secretion of TNF-α from the stimulated cells. These experiments included detection of the cytokines in the cell lysate by ELISA and staining of the intracellular cytokines by using monoclonal antibodies against these cytokines and cytokine receptors.
(§2) Table 3. Effect of Licochalcone A and SBC-35ma on the presence of intracellur cytokines in the human peripheral blood mononuclear cells stimulated either with a malarial exoantigen SPAG (diluted 1:12.5) or bacterial LPS (diluted 1:1000). The cells were preincubated with 25 μg/ml of each of the compounds for 2 hours and then incubated in the presence of antigens at 37° C. overnight. The cells were permeabilized and then fixed in paraformaldehyde Cytokine specific monoclonal antibodies were used for the detection of positive cells for each cytokine. Data are presented as percentages of positive cells for each cytokine.

[2] = system: IL-2; experiment: as above; details: 25 μg/ml compound
Experimental: as §1, §2

[3] = system: IL-6; experiment: as above; details: 25 μg/ml compound
Experimental: as §1, §2

[4] = system: IL-1α; experiment: as above; details: 25 μg/ml compound, 2 hours preincubation
Experimental: as §1, §2

[5] = system: IL-1β; experiment: as above; details: 25 μg/ml compound
Experimental: as §1, §2

[6] = system: IL-4; experiment: as above; details: 25 μg/ml compound
Experimental: as §1, §2

[7] = system: TNF-α; experiment: as above; details: 25 μg/ml compound
Experimental: as §1, §2

[8] = system: Simliki forest virus; experiment: Antiviral activity in Vero cell cultures; details: Vero cells; values given as fractions
Experimental: (§3) IC50 values are determined by the virus plaque formation and/or the virus cytopathic assay using standard methods well-known in the art.
(§4) In the following is reported the results from a Vero cell culture infected with different viruses. The cell culture used as well as the methods applied are well known to a person skilled in the art.

[9] = system: Sindbis virus; experiment: Antiviral activity in Vero cell cultures; details: Vero cells; values given as fractions
Experimental: as §3, §4

[10] = system: Reovirus-1; experiment: Antiviral activity in Vero cell cultures; details: Vero cells; values given as fractions
Experimental: as §3, §4

[11] = system: Parainfluenza-3 Virus; experiment: Antiviral activity in Vero cell cultures; details: Vero cells; values given as fractions
Experimental: as §3, §4

[12] = system: Coxsackie virus B4; experiment: Antiviral activity in Vero cell cultures; details: Vero cells; values given as fractions
Experimental: as §3, §4

[13] = system: Helicobacter pylori; experiment: Helicobacter species Assay (agar plate, MIC); details: for MIC: 20 strains of H. pylori, agar plate, 72 hours; for No. strains inhibited/No. strains tested: at the MIC of the same line
Experimental: 20 strains of Helicobacter pylori were used in an agar plate assay. The compounds were incorporated in the agar plates at different concentrations as described in the examples and were then inoculated with different strains of Helicobacter pylori followed by incubation in a microaerophilic atmosphere at 37° C. for 72 hours. The number of colony-forming units (CFU) were counted after the incubation period. The MIC values were determined as the minimal concentration required to inhibit growth of the bacteria.
(§5) Stock solutions were made at a concentration of 1 mg/ml by dissolving 1 mg of each compound in 100 μl DMSO (dimethylsulfoxide) followed by addition of 900 μl of heat-inactivated fetal claf serum (HFCS). These stock solutions were diluted with HFCS to make solutions having the following concentrations: 320 μg/ml, 160 μg/ml, 80 μg/ml, 40 μg/ml and 20 μg/ml. Dilution rows were made with 3 ml aliquots in vials containing the compounds in the following final test concentrations: 16 μg/ml, 8 μg/ml, 4 μg/ml, 2 μg/ml and 1 μg/ml. As control was used DMSO-HFCS containing an amount of DMSO equal to the amount of test compound in the solution with 320 μg/ml compound.
Bacteria: 20 strains of Helicobacter pylori were used in an agar plate assay. The compounds were incorporated in the agar plates at different concentrations and then they were inoculated with different strains of Helicobacter pylori followed by incubation at microaerophilic atmosphere at 37° C. in 72 hours. The number of colony-forming units (CFU) were counted after the incubation period. The MIC values were determined as the minimal concentration required to inhibit growth of the bacteria.
as §5, with “concentrations: 2560 μg/ml, 1280 μg/ml, 640 μg/ml,” for “concentrations:”, “160 µg/ml and” for “160 μg/ml,”, “80” for “80 μg/ml, 40 μg/ml and 20”, “concentrations: 128 μg/ml, 64 μg/ml, 32 μg/ml, 12” for “concentrations: 16”, “8” for “8 μg/ml, 4 μg/ml, 2”, “and 4” for “and 1”
Bacteria: 20 strains of Helicobacter pylori were used in an agar plate assay. The same method as described above under Experiment A was employed and MIC values were determined.

[14] = system: TNF-α; experiment: Extracellular TNF-α of human mononuclear cells (supernatant); details: for inhibition at 3.125 µg/mL: compound 3.125 μg/ml; for inhibition at 6.25 µg/mL: compound 6.25 μg/ml; for inhibition at 12.5 µg/mL: compound 12.5 μg/ml
Experimental: Incubation condition: Cells and mitogen added at the same time and the compound solution added immediately after in polypropylene tubes and incubated at 37° C. in CO2 incubator overnight. The following day the cells and the supernatant were harvested for TNF-α determination. Incubation condition: Cells and mitogen added at the same time and the compound solution added immediately after in polypropylene tubes and incubated at 37° C. in CO2 incubator overnight. The following day the cells and the supernatant were harvested for TNF-α determination.

[15] = Helicobacter pylori, read-out: MIC

Row | Structure (SMILES) | MIC [13, 15] [µg/mL] | percentages of positive cells for IL-1ra ([1]; LPS 1:1000, LPS alone 5.1) [%] | percentages of positive cells for IL-1ra ([1]; SPAG 1:12.5, SPAG alone 6.6) [%] | percentages of positive cells for IL-2 ([2]; LPS 1:1000, LPS alone 2.0) [%] | percentages of positive cells for IL-2 ([2]; SPAG 1:12.5, SPAG alone 3.1) [%] | percentages of positive cells for IL-6 ([3]; LPS 1:1000, LPS alone 4.3) [%] | percentages of positive cells for IL-6 ([3]; SPAG 1:12.5, SPAG alone 5.6) [%] | percentages of positive cells for IL-1α ([4]; LPS 1:1000, LPS alone 13) [%] | percentages of positive cells for IL-1α ([4]; SPAG 1:12.5, SPAG alone 11) [%] | percentages of positive cells for IL-1β ([5]; LPS 1:1000, LPS alone 9.1) [%] | percentages of positive cells for IL-1β ([5]; SPAG 1:12.5, SPAG alone 13) [%] | percentages of positive cells for IL-4 ([6]; LPS 1:1000, LPS alone 0) [%] | percentages of positive cells for IL-4 ([6]; SPAG 1:12.5, SPAG alone 0) [%] | percentages of positive cells for TNF-α ([7]; LPS 1:1000, LPS alone 0.30) [%] | percentages of positive cells for TNF-α ([7]; SPAG 1:12.5, SPAG alone 0.96) [%] | Minimum inhibitory concentration, Simliki forest virus [8] | Minimum inhibitory concentration, Sindbis virus [9] | Minimum inhibitory concentration, Reovirus-1 [10] | growth of the strains of H. pylori (FIGS. 1 and 2) [13] | No. strains inhibited/No. strains tested [13] | other results
1 | C=CC(C)(C)c1cc(/C=C/C(=O)c2ccc(O)cc2)c(OC)cc1O [Licochalcone A] | – | 7.6 | 2.9 | 3.6 | 5.2 | 6.7 | 6.2 | 15 | 9.1 | 12 | 13 | 0 | 0.69 | 0.70 | 1.0 | <1/100 | 1/600 | <1/100 | inhibited the growth of all the strains | 20/20 | Minimum inhibitory concentration, Parainfluenza-3 Virus [11]: <1/100; Minimum inhibitory concentration, Coxsackie virus B4 [12]: <1/100; strains that gave a MIC value equal to or less than 16 μg/ml ([13]; 20 strains): 20 out of 20; MIC [13]: 16 µg/mL (≈ 47.3 µM)
2 | C=CCOc1ccc(C(=O)/C=C/c2cc(OC)cc(OC)c2)cc1 [SBC-35ma, 3,5-dimethoxy-4′-allyloxychalcone] | – | 0.78 | 0.14 | 0 | 0 | 0 | 0 | 0 | 0 | 0 | 0 | 0 | 0 | 0 | 0 | <1/100 | <1/100 | <1/100 | – | – | Minimum inhibitory concentration, Parainfluenza-3 Virus [11]: <1/100; Minimum inhibitory concentration, Coxsackie virus B4 [12]: <1/100

More lines, main results first:

Row | MIC [13, 15] [µg/mL] | Structure (SMILES) | percentages of positive cells for IL-1ra ([1]; LPS 1:1000, LPS alone 5.1) [%] | percentages of positive cells for IL-1ra ([1]; SPAG 1:12.5, SPAG alone 6.6) [%] | percentages of positive cells for IL-2 ([2]; LPS 1:1000, LPS alone 2.0) [%] | percentages of positive cells for IL-2 ([2]; SPAG 1:12.5, SPAG alone 3.1) [%] | percentages of positive cells for IL-6 ([3]; LPS 1:1000, LPS alone 4.3) [%] | percentages of positive cells for IL-6 ([3]; SPAG 1:12.5, SPAG alone 5.6) [%] | percentages of positive cells for IL-1α ([4]; LPS 1:1000, LPS alone 13) [%] | percentages of positive cells for IL-1α ([4]; SPAG 1:12.5, SPAG alone 11) [%] | percentages of positive cells for IL-1β ([5]; LPS 1:1000, LPS alone 9.1) [%] | percentages of positive cells for IL-1β ([5]; SPAG 1:12.5, SPAG alone 13) [%] | percentages of positive cells for IL-4 ([6]; LPS 1:1000, LPS alone 0) [%] | percentages of positive cells for IL-4 ([6]; SPAG 1:12.5, SPAG alone 0) [%] | percentages of positive cells for TNF-α ([7]; LPS 1:1000, LPS alone 0.30) [%] | percentages of positive cells for TNF-α ([7]; SPAG 1:12.5, SPAG alone 0.96) [%] | Minimum inhibitory concentration, Simliki forest virus [8] | Minimum inhibitory concentration, Sindbis virus [9] | Minimum inhibitory concentration, Reovirus-1 [10] | growth of the strains of H. pylori (FIGS. 1 and 2) [13] | No. strains inhibited/No. strains tested [13] | other results
3 | 64 (≈ 183 µM) | COc1cc(/C=C/C(=O)c2ccc(C3CCCCC3)cc2)cc(OC)c1 [PH104, 3,5-dimethoxy-4′-cyclohexylchalcone] | – | – | – | – | – | – | – | – | – | – | – | – | – | – | – | – | – | inhibited the growth of all the strains | 15/20 | inhibition at 3.125 µg/mL ([14]; 1b Experiment 2, LPS 1 μg/ml): 82%; inhibition at 6.25 µg/mL ([14]; 1b Experiment 2, LPS 1 μg/ml): 90%; inhibition at 12.5 µg/mL ([14]; 1b Experiment 2, LPS 1 μg/ml): 93%; inhibition at 3.125 µg/mL ([14]; 1b Experiment 3, LPS 1 μg/ml): 54%; inhibition at 6.25 µg/mL ([14]; 1b Experiment 3, LPS 1 μg/ml): 70%; inhibition at 12.5 µg/mL ([14]; 1b Experiment 3, LPS 1 μg/ml): 76%; inhibition at 3.125 µg/mL ([14]; 1b Experiment 4, LPS 1 μg/ml): 0%; inhibition at 6.25 µg/mL ([14]; 1b Experiment 4, LPS 1 μg/ml): 78%; inhibition at 12.5 µg/mL ([14]; 1b Experiment 4, LPS 1 μg/ml): 86%
4 | 16 (≈ 51.1 µM) | COc1cc(/C=C/C(=O)c2ccc([N+](=O)[O-])cc2)cc(OC)c1 [PH105, 4′-nitro-3,5-dimethoxychalcone] | – | – | – | – | – | – | – | – | – | – | – | – | – | – | – | – | – | – | 12/20 | strains of Helicobacter pylori inhibited ([13]; at a concentration of 16 μg/ml, 20 strains): 12 out of 20
5 | 32 (≈ 112 µM) | COc1cc(/C=C/C(=O)c2ccccc2F)cc(OC)c1 [PH135, 2′-fluoro-3,5-dimethoxychalcone] | – | – | – | – | – | – | – | – | – | – | – | – | – | – | – | – | – | inhibited the growth of all the strains | 20/20 | inhibition at 3.125 µg/mL ([14]; 1b Experiment 2, LPS 1 μg/ml): 96%; inhibition at 6.25 µg/mL ([14]; 1b Experiment 2, LPS 1 μg/ml): 94%; inhibition at 12.5 µg/mL ([14]; 1b Experiment 2, LPS 1 μg/ml): 94%; inhibition at 3.125 µg/mL ([14]; 1b Experiment 3, LPS 1 μg/ml): 93%; inhibition at 6.25 µg/mL ([14]; 1b Experiment 3, LPS 1 μg/ml): 92%; inhibition at 12.5 µg/mL ([14]; 1b Experiment 3, LPS 1 μg/ml): 94%; inhibition at 3.125 µg/mL ([14]; 1b Experiment 4, LPS 1 μg/ml): 99%; inhibition at 6.25 µg/mL ([14]; 1b Experiment 4, LPS 1 μg/ml): 99%; inhibition at 12.5 µg/mL ([14]; 1b Experiment 4, LPS 1 μg/ml): 98%
6 | 32 (≈ 112 µM) | COc1cc(/C=C/C(=O)c2cccc(F)c2)cc(OC)c1 [PH136, 3′-fluoro-3,5-dimethoxychalcone] | – | – | – | – | – | – | – | – | – | – | – | – | – | – | – | – | – | inhibited the growth of all the strains | 15/20 | –
